The results in this text go back to patent publication US20260035384A1, “COMPOUND CONTAINING CYCLOHEXYL” (CHIA TAI TIANQING PHARMACEUTICAL GROUP CO., LTD., priority 2022, published 2026).

Positions count from the first letter of the chain named. Like-named read-outs stand apart in the source and are kept apart here. Bounds are passed on as bounds.

As usually defined, the IC50 is the midpoint of a concentration-inhibition curve. A low value points to higher potency. What is called clearance is the rate of elimination divided by the concentration. Read a low clearance as a low capacity for elimination. Broadly, the AUC is the area under the concentration-time curve, a measure of exposure. One may read the half-life as how long it takes for the measured level to halve. Low values mean fast loss, high ones slow loss. What is called bioavailability is dose-corrected exposure relative to a reference, in per cent. Read a low bioavailability as little systemic uptake. What is called Cmax is the highest concentration seen after dosing. Broadly, the DC50 is the concentration at which degradation of the target reaches its halfway point. A lower DC50 goes with a more potent degrader. Broadly, the Dmax is the greatest extent of degradation seen. Read a high Dmax as a fuller loss of target.

One data set concerns LNCaP cells. The experiment in a line: Assay on inhibitory activity for LNCaP cell proliferation (CCK-8). The class given is cell-based. The conditions noted are these: 168 h incubation. The method, boiled down:
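Cells seeded at 1×10^5 cells/mL in phenol red-free 1640 with 2% CSS-FBS, treated at final 10000 nM-0.61 nM in duplicate. After 168 h incubation, viability read with CCK-8.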

Data set [1] in a line: In vitro stability in liver microsome. The class given is in vitro ADME. Particulars: human liver microsome 0.5 mg/mL, NADPH, 37° C. The procedure: Liver microsome incubation samples (species: human, monkey, rat, and mouse) were prepared by mixing a PBS buffer (pH=7.4), a liver microsome solution (0.5 mg/mL), a test compound, and an NADPH+MgCl2 solution and incubated at 37° C. and 300 rpm for 1 h. Zero-hour samples were prepared by mixing a PBS buffer (pH=7.4), a liver microsome solution (0.5 mg/mL), and a test compound. An acetonitrile solution containing an internal standard was added to the samples, and supernatants were prepared by protein precipitation, diluted, and then assayed by LC/MS/MS.

The nature of a further data set: Mouse pharmacokinetics. Type of data set: in vivo, ICR mice. Particulars: ICR, mouse, plasma; for AUC: read-out: AUC; for bioavailability: Mouse i.g. 10 mpk vs i.v. 1 mpk; for Cmax: read-out: Cmax. The protocol:
ICR mice weighing 18-22 g were randomized into groups of 9 after 3-5 days of acclimatization, and then intragastrically given the test compound solution at a dose of 10 mg/kg and intravenously injected with the test compound solution at a dose of 1 mg/kg.
Blood sampling time points for the intragastrical administration group were 15 min, 0.5 h, 1 h, 2 h, 3 h, 4 h, 6 h, 8 h, 10 h, and 24 h, and blood sampling time points for the intravenous injection administration group were […], 15 min, 0.5 h, 1 h, 2 h, 4 h, 6 h, 8 h, 10 h, and 24 h; blood was collected from the orbit to prepare plasma samples to be tested. 30 μL of each of the plasma samples to be tested and a standard curve sample were taken, and an acetonitrile solution containing an internal standard was added. Supernatants were obtained by protein precipitation, diluted, and then assayed by LC/MS/MS. Pharmacokinetic parameters were fitted using a non-compartmental model (see Table 6).

The next data set deals with T1, AR in LNCaP cells (Homo sapiens, UniProt P10275, T878A).
T1 construct: Assay on Degradation Activity for AR in LNCaP Cells; endogenous in cells; host or cells: LNCaP cells
T1 sequence (P10275 1-920 T878A): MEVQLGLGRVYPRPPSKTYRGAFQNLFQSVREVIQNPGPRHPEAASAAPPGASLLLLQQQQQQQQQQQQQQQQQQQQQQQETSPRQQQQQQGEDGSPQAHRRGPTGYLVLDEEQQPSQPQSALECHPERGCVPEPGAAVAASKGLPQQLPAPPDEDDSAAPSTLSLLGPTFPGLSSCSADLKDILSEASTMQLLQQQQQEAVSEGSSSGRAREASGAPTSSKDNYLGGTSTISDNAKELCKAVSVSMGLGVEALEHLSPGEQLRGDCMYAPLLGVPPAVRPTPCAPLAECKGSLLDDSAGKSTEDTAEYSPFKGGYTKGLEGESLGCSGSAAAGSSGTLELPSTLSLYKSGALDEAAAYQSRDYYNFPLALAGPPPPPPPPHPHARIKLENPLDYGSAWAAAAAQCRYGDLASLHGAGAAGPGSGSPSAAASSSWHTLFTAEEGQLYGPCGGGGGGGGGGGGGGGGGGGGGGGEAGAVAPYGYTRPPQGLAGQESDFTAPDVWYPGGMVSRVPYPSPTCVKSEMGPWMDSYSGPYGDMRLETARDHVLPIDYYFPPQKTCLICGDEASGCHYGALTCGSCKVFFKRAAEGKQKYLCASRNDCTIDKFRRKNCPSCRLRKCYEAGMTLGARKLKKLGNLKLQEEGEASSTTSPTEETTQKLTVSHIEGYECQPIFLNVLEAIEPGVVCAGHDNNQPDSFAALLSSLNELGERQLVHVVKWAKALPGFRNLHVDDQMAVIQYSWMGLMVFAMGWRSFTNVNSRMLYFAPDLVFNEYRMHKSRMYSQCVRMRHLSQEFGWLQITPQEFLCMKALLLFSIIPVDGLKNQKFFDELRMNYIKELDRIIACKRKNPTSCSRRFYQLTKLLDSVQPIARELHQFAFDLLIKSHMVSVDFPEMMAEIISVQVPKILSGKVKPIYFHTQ
The experiment in a line: Assay on degradation activity for AR in LNCaP cells (HTRF human androgen receptor detection kit). The class given is cell-based. The conditions noted are these: 24 h incubation; for DC50: HTRF; for Dmax: maximum degradation rate. The method, boiled down: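 LNCaP cells seeded in 2% CSS-FBS phenol red-free 1640 medium overnight, then treated in duplicate with 500 nM–0.488 nM compound for 24 h. AR in lysates quantified by HTRF (Eu cryptate/d2 antibodies, 2 h, 25 °C, 665/620 nm); DC50 and Dmax from four-parameter fits.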
On the technique in general: TR-FRET usually uses a lanthanide donor and a delayed reading to cut background.

Another data set deals with VCaP cells. The data set is described as follows: Assay on inhibitory activity for VCaP cell proliferation (CCK-8). Type of data set: cell-based. The conditions noted are these: Homo sapiens, 168 h incubation. The method, boiled down:
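VCaP cells seeded at 1×10^5 cells/mL in phenol red-free DMEM with 5% charcoal-stripped FBS, treated in duplicate at 10000–0.61 nM final. After 168 h incubation, viability was read with CCK-8.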

A further data set addresses T2, AR in VCaP cells (Homo sapiens, UniProt P10275).
T2 construct: Assay on Degradation Activity for AR in VCaP Cells; endogenous in cells; host or cells: VCaP cells
T2 sequence (P10275 1-920): T1 sequence (P10275 1-920 T878A) with A878T
The data set is described as follows: Assay on degradation activity for AR in VCaP cells (HTRF human androgen receptor detection kit). Type of data set: cell-based. Particulars: 24 h incubation. The procedure:
The detection was carried out using the HTRF HUMAN ANDROGEN RECEPTOR DETECTION KIT (cisbio, 64ANDRPEG), 4× Supplemented Lysis buffer was prepared using the Blocking reagent stock solution (100×) and Lysis buffer stock solution (4×), and 1× Supplemented Lysis buffer was prepared using the 4× Supplemented Lysis buffer and ddH2O. Premixed antibody solutions were prepared using Detection buffer, Androgen Receptor Eu Cryptate antibody, and Androgen Receptor d2 antibody.
VCaP cells in a good growth state were taken, washed with PBS, digested with pancreatin, and added with 2% CSS—FBS phenol red-free DMEM complete medium to terminate the digestion. The cells were collected by using a centrifuge tube, adjusted to a cell density of 1×10^6 cells/mL, and seeded in a 96-well plate (100 µL/well). The cells were incubated overnight in a cell incubator. Compounds were added using a nanoliter pipettor such that the final concentrations of the compounds were 1000 nM-0.977 nM. Two duplicate wells were set for each concentration, and meanwhile, a control was set. After another 24 h of incubation in the cell incubator, the medium was pipetted out, the 1× Supplemented Lysis buffer was added at 40 μL/well to lyse the cells. After the cells were oscillated for 40 min at room temperature, 16 μL of the cell lysate was added to a 384-well plate, the Premixed antibody solutions were added at 4 μL/well, and the mixture was left to stand at 25° C. for 2 h. Fluorescence values were detected at 665 nm/620 nm using an Envision microplate reader, the four-parameter analysis was performed, the dose-response curves were fit, and DC50 (the concentration of the drug when the degradation rate reaches 50%) and Dmax (the maximum degradation rate) were calculated.

The mark [2] stands for this setting: po, 10 mg/kg, Mouse i.g. 10 mpk.

On to `N#Cc1ccc(O[C@H]2CC[C@H](NC(=O)c3ccc(N4CCC5(CC4)CN(C4Cc6ccc7c(C8CCC(=O)NC8=O)noc7c6C4)C5)nn3)CC2)cc1Cl` (single isomer, unassigned) [Compound 24], for which, in the data set on LNCaP cells (Homo sapiens), the IC50 was less than 1000 nM. In data set [1], the “Human liver microsome Residuals at 60 min (%)” value is listed as more than 85%.

Turning to `N#Cc1ccc(O[C@H]2CC[C@H](NC(=O)c3ccc(N4CCC5(CC4)CN(C4Cc6ccc7c(C8CCC(=O)NC8=O)noc7c6C4)C5)nn3)CC2)cc1Cl` (single isomer, unassigned) [Compound 25], the IC50 with LNCaP cells is less than 1000 nM. For the same compound, the “Human liver microsome Residuals at 60 min (%)” value in data set [1] is given as more than 85%.

Turning to `N#Cc1ccc(O[C@H]2CC[C@H](NC(=O)c3ccc(N4CCC(CN5CCc6ccc7c(C8CCC(=O)NC8=O)noc7c6C5)CC4)nn3)CC2)cc1Cl` (stereo partly shown) [Compound 18], the IC50 in the data set with LNCaP cells (Homo sapiens) was less than 1000 nM. In addition, in the data set “Mouse pharmacokinetics” (iv, 1 mg/kg, Mouse i.v. 1 mpk), the clearance was 2.7 mL/min/kg and the AUC is 5930 ng·h/mL. In the data set “Mouse pharmacokinetics” (setting [2]), the half-life is 5.52 h, the AUC is 18400 ng·h/mL and the highest concentration (Cmax) came to 1200 ng/mL. In addition, in “Mouse pharmacokinetics” (po, 10 mg/kg), the bioavailability was found to be 31%. At AR in LNCaP cells, the DC50 was not above 20 nM and the Dmax was more than 80%. In addition, the “Human liver microsome Residuals at 60 min (%)” value in data set [1] is reported as more than 85%.

`N#Cc1ccc(O[C@H]2CC[C@H](NC(=O)c3ccc(N4CCC(CN5CC6(Cc7ccc8c(C9CCC(=O)NC9=O)noc8c7C6)C5)CC4)nn3)CC2)cc1Cl` (stereo partly shown) [Compound 21] had an IC50 with LNCaP cells (Homo sapiens) of less than 1000 nM. For the same compound, the “Human liver microsome Residuals at 60 min (%)” value in data set [1] was more than 85%.

Turning to `N#Cc1ccc(O[C@H]2CC[C@H](NC(=O)c3ccc(N4CCC5(CC4)CC(CN4Cc6ccc7c(C8CCC(=O)NC8=O)noc7c6C4)C5)nn3)CC2)cc1Cl.O=C(O)/C=C\C(=O)O` (stereo partly shown) [Compound 34], the results for the IC50 with LNCaP cells (Homo sapiens) and in the data set on VCaP cells were less than 1000 nM and less than 100 nM, respectively. On AR in LNCaP cells, this compound gave a Dmax of more than 80%. The “Human liver microsome Residuals at 60 min (%)” value in data set [1] was more than 85%.

On to `N#Cc1ccc(O[C@H]2CC[C@H](NC(=O)c3ccc(C4CCN(CC5CN(c6cc7onc(C8CCC(=O)NC8=O)c7c7ccccc67)C5)CC4)nn3)CC2)cc1Cl` (stereo partly shown) [Compound 47], for which the IC50 in the data set on VCaP cells is less than 10 nM. On AR in LNCaP cells, this compound yielded a half-maximal degradation concentration (DC50) not above 20 nM and a Dmax of more than 80%. Also, the “Human liver microsome Residuals at 60 min (%)” value in data set [1] is more than 85%.

For the compound `N#Cc1ccc(O[C@H]2CC[C@H](NC(=O)c3ccc(N4CCC(N5CC(N6Cc7ccc8c(C9CCC(=O)NC9=O)noc8c7C6)C5)CC4)nn3)CC2)cc1Cl` (stereo partly shown) [Compound 94], the DC50 on AR in VCaP cells was not above 1 nM. For the same compound, the IC50 was less than 1000 nM in the data set with LNCaP cells (Homo sapiens) and less than 100 nM with VCaP cells. In addition, the “Human liver microsome Residuals at 60 min (%)” value in data set [1] was more than 85%.

Take `N#Cc1ccc(O[C@H]2CC[C@H](NC(=O)c3cnc(N4CCC(CN5Cc6ccc7c(C8CCC(=O)NC8=O)noc7c6C5)CC4)nc3)CC2)cc1Cl` (stereo partly shown) [Compound 119]: in the data set with LNCaP cells (Homo sapiens), the IC50 is less than 1000 nM. This compound also had an IC50 in the data set on VCaP cells (VCaP, 168 h) of less than 100 nM. Besides, in the data set “Mouse pharmacokinetics” (iv, 1 mg/kg, Mouse i.v. 1 mpk), the clearance was 5.8 mL/min/kg, the half-life is 11.5 h and the AUC was 2720 ng·h/mL. Besides, in the data set “Mouse pharmacokinetics” (setting [2]), the half-life is 8.6 h, the AUC was 10600 ng·h/mL and the Cmax came to 559 ng/mL. In “Mouse pharmacokinetics” (po, 10 mg/kg), the bioavailability was determined as 39%. Moreover, in data set [1], the “Human liver microsome Residuals at 60 min (%)” value is reported as more than 85%.

On to `N#Cc1ccc(O[C@H]2CC[C@H](NC(=O)c3cnc(N4CCC(CN5CCc6c(ccc7c(C8CCC(=O)NC8=O)noc67)C5)CC4)cn3)CC2)cc1Cl` (stereo partly shown) [Compound 145], for which the results for the DC50 at AR in VCaP cells and on AR in LNCaP cells were not above 1 nM and not above 20 nM, respectively. Moreover, the IC50 with LNCaP cells (Homo sapiens) is less than 1000 nM; in the data set with VCaP cells, less than 100 nM. For the same compound, the greatest degradation seen (Dmax) on AR in LNCaP cells was more than 80%.
